Experimental data taken from US20030229105A1, “Treatment of autoimmune disorders” (Cyclacel Limited, priority 2002, published 2003).

How the values were obtained:
[1] = test system: uninfected T and monocytic cells; assay: Initial test of cdk inhibitors on uninfected cells (data not shown)
[2] = test system: HIV-1; assay: p24 antigen ELISA of supernatants from induced HIV-1 latently infected cells (ACH2, 8E5, U1); format: cell-based; details: for inhibition of HIV-1 replication, prolonged treatment: U1 and 8E5 cells, up to 21 days, 5 or 10 μM (data not shown); for postintegrative HIV-1 progeny formation: low concentrations (data not shown)
Protocol: We chose HIV-1 stably integrated cells, lymphocytic ACH2 and 8E5 cell lines, as well as monocytic U1 cells (and their uninfected parental counterparts CEM and U937, respectively) for our initial studies, since viral transcription could be activated and scored through signals, such as Tat, TNF-α or phorbol myristate acetate (PMA) and PHA. We first activated viruses in these cells with TNF-α (10 ng/ml) at 37° C. for 2 h, followed by washing, and then we incubated cells with 10 μM concentrations of each drug. […] We next examined the effect of all three drugs on primary HIV-1 field isolates of SI and NSI strains. Activated PBMC were infected with two independent HIV-1 viral strains of SI (UG/92/029, subtype A envelope) and NSI (THA/92/001, subtype E envelope).
Five days later, the supernatants were collected, and the amount of newly synthesized HIV-1 was measured by p24 antigen assay. (B) Purified Tat (300 μg) was electroporated into ACH2, 8E5, and U1 cells and subsequently treated with various drugs for 5 days. […] Seven days later samples were collected and used for p19 gag ELISA. (E) PHA-activated PBMC (5×10^6) were infected with HIV-1 either SI (UG/92/029 Uganda strain, subtype A envelope) or NSI (THA/92/001, Thailand strain, subtype E envelope) strains. Unadsorbed viruses were washed after 6 h, and cells were cultured in fresh media with various cdk inhibitors (10 μM). Samples were collected every sixth day and used for p24 gag ELISA assay.
At days 2, 4, and 6, the supernatants were collected, and the released HIV-1 particles were measured by using a p24 antigen ELISA assay. (B) Twenty micrograms of total RNA was separated on an RNA-formaldehyde-agarose gel, transferred, and probed with full-length labeled HIV-1 genome RNA. The hybridized genomic RNA, singly spliced (structural), and doubly spliced (regulatory) RNAs were exposed and counted by using Molecular Dynamic PhosphorImager software.
Supernatants from the infected PBMC were collected and used directly for the p24 antigen assay. The p24 gag antigen level was analyzed by using the HIVAG-1 Monoclonal Antibody Kit (Abbott Laboratories, Diagnostics Division). The HTLV-1 p19 core antigen ELISA kit was from Retro-Tek (Cellular Products).

[3] = test system: CEM cells; assay: Cell proliferation, [3H]thymidine incorporation; format: cell-based; details: ca. 10 μM
Text: We next sought to determine whether the inhibition of HIV-1 transcription, observed above, could be mediated specifically by cdk inhibitors or by general cell cycle inhibitors. To distinguish between the two possibilities, we performed transfection experiments with all three cdk inhibitors tested above and two other well-established cell cycle inhibitors, namely, hydroxyurea and nocodazole. Hydroxyurea blocks DNA replication by inhibiting ribonucleotide reductase and thus arrests cell cycle progression at the G1/S checkpoint, while nocodazole blocks at G2/M by promoting tubulin depolymerization. […] Therefore, the basal transcription of HIV-1 was inhibited by purine analogs and not general cell cycle inhibitors.
FIG. 3 discloses inhibition of HIV-1 basal and activated transcription by cdk inhibitors. […] The graphs at the bottom of the figure represent the effect of various concentrations of general cell cycle inhibitors (hydroxyurea and nocodazole) on CEM cells. (B) Inhibition of activated transcription in CEM cells was examined using transfected HIV-1 LTR-CAT, together with pcTat plasmid. […]
Cells (CEM) were initially treated with various concentrations of hydroxyurea or nocodazole and evaluated after 0, 12, 24, 48, 60, and 72 h. […] The amount of radioactivity incorporated into the DNA was measured in a liquid scintillation counter (Packard) and expressed as the counts per minute (cpm). […]

Row | Compound | toxicity in uninfected cells [1] | inhibition of HIV-1 replication, prolonged treatment [2] | postintegrative HIV-1 progeny formation [2] | inhibition of DNA synthesis [3]
1 | Cn1cnc2c(NCc3ccccc3)nc(NCCO)nc21 [Olomoucine] | lack of toxicity |  |  | 
2 | NC(=O)NO [hydroxyurea, reference compound] |  | neither hydroxyurea nor nocodazole was able to inhibit HIV-1 replication | remained essentially the same | no inhibition of DNA synthesis was observed
3 | COC(=O)Nc1nc2ccc(C(=O)c3cccs3)cc2[nH]1 [nocodazole, reference compound] |  | neither hydroxyurea nor nocodazole was able to inhibit HIV-1 replication | slightly higher | no inhibition of DNA synthesis was observed
